Assay results published in US11260011B2, “Use of neohesperidin” (NATURAL MEDICINE INSTITUTE OF ZHEJIANG YANGSHENGTANG CO., …, priority 2011, dated 2022).
Several values for one entry are separate records, joined by “and”; a condition that tells them apart may be missing. Equal entries are not always repeated.

Columns and labels:
[1] = Effect of topical application of neohesperidin on skin microcirculation by Laser Doppler Flowmetery; type: in vivo, Oryctolagus cuniculus; design: key to Working time point: —: represents the time point at which P < 0.1 did not appear during the 24 h test when 2% solution was administered orally
Text: The experimental method for promoting microcirculation: Male Oryctolagus cuniculus weighted 3.0-3.5 kg were used. After shaving the hair on the back of the Oryctolagus cuniculus, 10 points for testing blood flow were marked with a marker pen on the hairless skin of the rabbit, i.e. 5 points for each of the right side and the left side, and aorta was avoided when drawing the points. Before smearing the sample, the basic values of blood flow at the 10 points of rabbits of each experimental group were determined by Laser Doppler Flowmetery. […] 2% (w/v) solution was orally administrated by a similar method in a volume 100 times compared to the volume used in the group wherein the 2% (w/v) solution was administered by smearing. After administration, the blood flow value was determined every hour at the same point by Laser Doppler Flowmetery for 24 h, and the variation index of blood flow was calculated to evaluate the effect of neohesperidin on the back blood of rabbits, wherein a higher variation index of blood flow indicated a better effect of promoting microcirculation. The experimental results were statistically analyzed by SPSS11.5 software, and t-test was applied to the measured data to evaluate the experimental results. When P<0.1, the data may be regarded as statistically significant. In the results of Table 1, all the time points with P<0.1 in the 24-h test were listed.

[2] = topical application to human skin; cited from earlier work

| Compound | improvement of skin microcirculation after topical administration to skin surface [2] | further results |
| --- | --- | --- |
| COc1ccc([C@@H]2CC(=O)c3c(O)cc(O[C@@H]4O[C@H](CO)[C@@H](O)[C@H](O)[C@H]4O[C@@H]4O[C@@H](C)[C@H](O)[C@@H](O)[C@H]4O)cc3O2)cc1O [neohesperidin] |  | Working time point ([1]; 0.5% (w/v) solution, smearing on back skin, time points with P<0.1 in 24-h test): 6 h; Working time point ([1]; 1% (w/v) solution, smearing on back skin, time points with P<0.1 in 24-h test): 2 h and 3 h; Working time point ([1]; 2% (w/v) solution, orally, 24-h test): —; blood flow in skin microvessels as compared to the blank side ([1]; smearing backs of rabbits with different concentrations): significantly enhanced |
| C[C@@H]1CC[C@@]2(OC1)O[C@H]1C[C@H]3[C@@H]4CC=C5C[C@@H](O)C[C@@H](O)[C@]5(C)[C@H]4CC[C@]3(C)[C@H]1[C@@H]2C [ruscogenin] | cannot significantly improve skin microcirculation |  |
| ginkgo flavone | cannot significantly improve skin microcirculation |  |
| ginsenoside | cannot significantly improve skin microcirculation |  |
| tanshinone | cannot significantly improve skin microcirculation |  |
| β-aescin | cannot significantly improve skin microcirculation |  |
